PubChem BioAssay (NCI)
Where “and” joins values, the source holds several entries; their conditions need not be identical. Equal entries are not always repeated.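 How tested: cells in 96-well plates exposed to compound for 48 hours at five concentrations. GI50: concentration for 50% inhibition of growth. The concentration for full growth arrest is given as TGI.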

test system: K-562 leukemia; assay: inhibition of tumour cell growth, NCI panel, 48 h

Structure (SMILES)	TGI
COc1cc2c(cc1OC)C(O)[C@H](Br)C(C)(C)O2 (stereo not given in full)	> 100 µM
COC1=C(Br)[C@H](O)[C@@]2(C=C1Br)CC(C(=O)NCCCCCN=C(N)N)=NO2	> 10 µM
CCCCCC(C[N+]1(C)CCOCC1)C(=O)/C=C/c1ccccc1 (stereo not given)	18 µM
CC1(C#N)CC(C)(C)C(/C=C2/CC(C)(C)C(/C=C3/OC(=N)CC3(C)C)=N2)=N1 (stereo not given)	78.1 µM
COc1ccc(C[N+]23C(CC[C@H]2c2ccccc2)CC[C@H]3c2ccccc2)cc1 (stereo not given in full)	> 100 µM
O=C1c2cc3c(cc2CC12Cc1cc4c(cc1C2=O)CCC4)CCCC3 (stereo not given)	> 100 µM
CCOC(=O)CC1c2ccc(O)cc2OC(=O)C1c1ccc([N+](=O)[O-])cc1 (stereo not given)	> 100 µM
CC(=O)OCC1OC(Nc2ncc(-c3ccc(C)cc3)s2)C(OC(C)=O)C(OC(C)=O)C1OC(C)=O (stereo not given)	> 100 µM
CCN(CC)/C(Cl)=C(Cl)\C(=C1\Nc2ccc(OC)cc21)[N+](=O)[O-]	> 100 µM

test system: TK-10 renal; assay: inhibition of tumour cell growth, NCI panel, 48 h

Structure (SMILES)	TGI
Cc1ccc2c(c1CCCC(C)(C)O)C(=O)C(=O)C(C(C)C)=C2O	> 100 µM
CC(=O)c1sc2c(c1OC(=O)c1cccs1)c(=O)n(-c1ccccc1)c(=S)n2-c1ccccc1	55.4 µM
C[C@]12CCC(=O)C=C1CC[C@@H]1C2CC[C@]2(C)c3nn(-c4ccc(F)cc4)nc3CC12 (stereo not given in full)	> 100 µM
CN(C)C(=O)NCCN1CCCCCc2ccccc21	> 100 µM
O=C1C(Cl)C(c2ccccc2)N1n1cnc2ccccc2c1=O (stereo not given)	> 100 µM
COC(=O)c1ccc(/C=C2\N=C(C)OC2=O)cc1	> 100 µM
Cc1ccc2nc(-c3ccc(N)c(I)c3)sc2c1	17.7 µM
CCOC(=O)c1nc2c(Cl)c3ncccc3cc2[nH]c1=O	> 100 µM
CCOC(=O)C1=C(Nc2cccc(OC)c2)OCC1=O	> 100 µM
CO[C@H]1[C@@H](O)[C@@H](C)O[C@@H](O[C@H]2CC[C@@]3(C)[C@H](CC[C@@H]4[C@@H]3CC[C@]3(C)[C@@H](C5=CC(=O)OC5)[C@@H](OC(C)=O)C[C@]43O)C2)[C@@H]1O	0.052 µM
COc1ccc2c(c1)CC[C@@H]1[C@@H]2CC[C@]2(C)C(=O)/C(=C/c3ccc(OC)c(OC)c3)C[C@@H]12	> 100 µM
Cc1cn(C2CC(ON3C(=O)c4ccccc4C3=O)C(CO)O2)c(=O)[nH]c1=O (stereo not given)	> 10 µM
C=CCn1c(=O)n(CC=C)c(=O)n(CC=C)c1=O	> 100 µM
CCCCN1C=CN2c3nc4cc(C)c(C)cc4n3C(C(=O)OC)=C(C(=O)OC)C12 (stereo not given)	> 100 µM
COC(=O)C(=C/c1ccc(OC)cc1)/C(C(=O)O)=C(/C)c1ccccc1	> 100 µM
CCC1c2[nH]c3ccccc3c2C[C@H]2C(=O)NC(COC(C)(C)C)C(=O)N12 (stereo not given in full)	> 100 µM
CCOC(=O)CC1CCN(C(=O)c2ccccc2)C2Cc3c([nH]c4ccccc34)C12C[N+](=O)[O-] (stereo not given)	> 100 µM

Structure (SMILES)	TGI
CC12CCC(C(=O)OC1=O)C2(C)C (stereo not given)	> 100 µM
CCOC(=O)C(N=Nc1ccc(S(N)(=O)=O)cc1)C(C)=O (stereo not given)	> 100 µM
Cc1ccc(C2CC(c3ccco3)=NN2c2ccccc2)o1 (stereo not given)	> 100 µM
C/C(=C1/CCCC2(N=NCC2c2ccccc2)C1=O)c1ccccc1 (stereo not given)	> 100 µM
CCN1CCN(c2ccc(Nc3ccnc4ccc5nn(C)nc5c34)cc2)CC1	39.4 µM
CC(C)CC1[C@@H](OCc2ccccc2)COS(=O)N1Cc1ccccc1 (stereo not given in full)	> 100 µM
CNC(=S)N/N=C(C)\C(=N/NC(=S)NC)c1ccccc1	> 100 µM
O=[N+]([O-])c1ccc(-n2nnc(C3=NCCCN3)c2-c2ccc(Cl)cc2)cc1	> 100 µM
COc1cc2c(cc1OC)C(O)[C@H](Br)C(C)(C)O2 (stereo not given in full)	> 100 µM
COC1=C(Br)[C@H](O)[C@@]2(C=C1Br)CC(C(=O)NCCCCCN=C(N)N)=NO2	> 10 µM
CCCCCC(C[N+]1(C)CCOCC1)C(=O)/C=C/c1ccccc1 (stereo not given)	37.8 µM
CC1(C#N)CC(C)(C)C(/C=C2/CC(C)(C)C(/C=C3/OC(=N)CC3(C)C)=N2)=N1 (stereo not given)	> 100 µM
COc1ccc(C[N+]23C(CC[C@H]2c2ccccc2)CC[C@H]3c2ccccc2)cc1 (stereo not given in full)	> 100 µM
O=C1c2cc3c(cc2CC12Cc1cc4c(cc1C2=O)CCC4)CCCC3 (stereo not given)	> 100 µM
CCOC(=O)CC1c2ccc(O)cc2OC(=O)C1c1ccc([N+](=O)[O-])cc1 (stereo not given)	75.3 µM
CCN(CC)/C(Cl)=C(Cl)\C(=C1\Nc2ccc(OC)cc21)[N+](=O)[O-]	> 100 µM

test system: EKVX NSCLC; assay: inhibition of tumour cell growth, NCI panel, 48 h

Structure (SMILES)	TGI	GI50
Cc1ccc2c(c1CCCC(C)(C)O)C(=O)C(=O)C(C(C)C)=C2O	> 100 µM	–
CC(=O)c1sc2c(c1OC(=O)c1cccs1)c(=O)n(-c1ccccc1)c(=S)n2-c1ccccc1	51.1 µM	–
C[C@]12CCC(=O)C=C1CC[C@@H]1C2CC[C@]2(C)c3nn(-c4ccc(F)cc4)nc3CC12 (stereo not given in full)	> 100 µM	–
CN(C)C(=O)NCCN1CCCCCc2ccccc21	> 100 µM	–
O=C1C(Cl)C(c2ccccc2)N1n1cnc2ccccc2c1=O (stereo not given)	> 100 µM	–
CN(C)C(=O)OCOC(=O)N(C)C	> 100 µM	–
CC(=O)Oc1ccccc1-c1cc2ccccc2oc1=O	> 100 µM	–
COC(=O)c1ccc(/C=C2\N=C(C)OC2=O)cc1	> 100 µM	–
Cc1ccc2nc(-c3ccc(N)c(I)c3)sc2c1	> 100 µM	–
CCOC(=O)c1nc2c(Cl)c3ncccc3cc2[nH]c1=O	> 100 µM	–
CCOC(=O)C1=C(Nc2cccc(OC)c2)OCC1=O	> 100 µM	–
O=C1NC(=O)C(CCO)(c2ccccc2)C(=O)N1	> 100 µM	–
CO[C@H]1[C@@H](O)[C@@H](C)O[C@@H](O[C@H]2CC[C@@]3(C)[C@H](CC[C@@H]4[C@@H]3CC[C@]3(C)[C@@H](C5=CC(=O)OC5)[C@@H](OC(C)=O)C[C@]43O)C2)[C@@H]1O	0.0568 µM	–
COc1ccc2c(c1)CC[C@@H]1[C@@H]2CC[C@]2(C)C(=O)/C(=C/c3ccc(OC)c(OC)c3)C[C@@H]12	> 100 µM	–
Cc1cn(C2CC(ON3C(=O)c4ccccc4C3=O)C(CO)O2)c(=O)[nH]c1=O (stereo not given)	> 10 µM	–
C=CCn1c(=O)n(CC=C)c(=O)n(CC=C)c1=O	> 100 µM	–
CCCCN1C=CN2c3nc4cc(C)c(C)cc4n3C(C(=O)OC)=C(C(=O)OC)C12 (stereo not given)	> 100 µM	–
COC(=O)C(=C/c1ccc(OC)cc1)/C(C(=O)O)=C(/C)c1ccccc1	> 100 µM	–

Structure (SMILES)	TGI	GI50
C=C1C(=O)O[C@H]2[C@H]1[C@@H](OC(=O)C=C(C)C)CC1=C[C@@H](C[C@@]3(C)O[C@@H]23)OC1=O	10.2 µM and 5.83 µM	0.839 µM
CCC1c2[nH]c3ccccc3c2C[C@H]2C(=O)NC(COC(C)(C)C)C(=O)N12 (stereo not given in full)	> 100 µM	–
CCOC(=O)CC1CCN(C(=O)c2ccccc2)C2Cc3c([nH]c4ccccc34)C12C[N+](=O)[O-] (stereo not given)	> 100 µM	–
CCOC(=O)C(N=Nc1ccc(S(N)(=O)=O)cc1)C(C)=O (stereo not given)	> 100 µM	–
Cc1ccc(C2CC(c3ccco3)=NN2c2ccccc2)o1 (stereo not given)	> 100 µM	–
C/C(=C1/CCCC2(N=NCC2c2ccccc2)C1=O)c1ccccc1 (stereo not given)	> 100 µM	–
CC(C)CC1[C@@H](OCc2ccccc2)COS(=O)N1Cc1ccccc1 (stereo not given in full)	> 100 µM	–
OCC1OC(n2cnc3c2NC=NC[C@H]3O)C(O)C1O (stereo not given in full)	> 450 µM	–
CNC(=S)N/N=C(C)\C(=N/NC(=S)NC)c1ccccc1	> 100 µM	–
O=[N+]([O-])c1ccc(-n2nnc(C3=NCCCN3)c2-c2ccc(Cl)cc2)cc1	> 100 µM	–
COc1cc2c(cc1OC)C(O)[C@H](Br)C(C)(C)O2 (stereo not given in full)	> 100 µM	–
CCCCCC(C[N+]1(C)CCOCC1)C(=O)/C=C/c1ccccc1 (stereo not given)	38.2 µM	–
CC1(C#N)CC(C)(C)C(/C=C2/CC(C)(C)C(/C=C3/OC(=N)CC3(C)C)=N2)=N1 (stereo not given)	51.6 µM	–
COc1ccc(C[N+]23C(CC[C@H]2c2ccccc2)CC[C@H]3c2ccccc2)cc1 (stereo not given in full)	69.8 µM	–
O=C1c2cc3c(cc2CC12Cc1cc4c(cc1C2=O)CCC4)CCCC3 (stereo not given)	> 100 µM	–
CCOC(=O)CC1c2ccc(O)cc2OC(=O)C1c1ccc([N+](=O)[O-])cc1 (stereo not given)	> 100 µM	–
CC(=O)OCC1OC(Nc2ncc(-c3ccc(C)cc3)s2)C(OC(C)=O)C(OC(C)=O)C1OC(C)=O (stereo not given)	> 100 µM	–
CCN(CC)/C(Cl)=C(Cl)\C(=C1\Nc2ccc(OC)cc21)[N+](=O)[O-]	> 100 µM	–

test system: BT-549 breast; assay: inhibition of tumour cell growth, NCI panel, 48 h

Structure (SMILES)	TGI
C[C@]12CCC(=O)C=C1CC[C@@H]1C2CC[C@]2(C)c3nn(-c4ccc(F)cc4)nc3CC12 (stereo not given in full)	> 100 µM
CC(=O)Oc1ccccc1-c1cc2ccccc2oc1=O	> 100 µM
Cc1ccc2nc(-c3ccc(N)c(I)c3)sc2c1	> 100 µM
CCOC(=O)c1nc2c(Cl)c3ncccc3cc2[nH]c1=O	94.7 µM
CO[C@H]1[C@@H](O)[C@@H](C)O[C@@H](O[C@H]2CC[C@@]3(C)[C@H](CC[C@@H]4[C@@H]3CC[C@]3(C)[C@@H](C5=CC(=O)OC5)[C@@H](OC(C)=O)C[C@]43O)C2)[C@@H]1O	0.161 µM
COc1ccc2c(c1)CC[C@@H]1[C@@H]2CC[C@]2(C)C(=O)/C(=C/c3ccc(OC)c(OC)c3)C[C@@H]12	> 100 µM
Cc1cn(C2CC(ON3C(=O)c4ccccc4C3=O)C(CO)O2)c(=O)[nH]c1=O (stereo not given)	> 10 µM
CCC1c2[nH]c3ccccc3c2C[C@H]2C(=O)NC(COC(C)(C)C)C(=O)N12 (stereo not given in full)	> 100 µM
CCOC(=O)CC1CCN(C(=O)c2ccccc2)C2Cc3c([nH]c4ccccc34)C12C[N+](=O)[O-] (stereo not given)	> 100 µM
CNC(=S)N/N=C(C)\C(=N/NC(=S)NC)c1ccccc1	> 100 µM
COC1=C(Br)[C@H](O)[C@@]2(C=C1Br)CC(C(=O)NCCCCCN=C(N)N)=NO2	> 10 µM
CCN(CC)/C(Cl)=C(Cl)\C(=C1\Nc2ccc(OC)cc21)[N+](=O)[O-]	> 100 µM

test system: SW-620 colon; assay: inhibition of tumour cell growth, NCI panel, 48 h

Structure (SMILES)	TGI
Cc1ccc2c(c1CCCC(C)(C)O)C(=O)C(=O)C(C(C)C)=C2O	> 100 µM
CC(=O)c1sc2c(c1OC(=O)c1cccs1)c(=O)n(-c1ccccc1)c(=S)n2-c1ccccc1	45.9 µM
C[C@]12CCC(=O)C=C1CC[C@@H]1C2CC[C@]2(C)c3nn(-c4ccc(F)cc4)nc3CC12 (stereo not given in full)	> 100 µM
CN(C)C(=O)NCCN1CCCCCc2ccccc21	> 100 µM
O=C1C(Cl)C(c2ccccc2)N1n1cnc2ccccc2c1=O (stereo not given)	> 100 µM
CN(C)C(=O)OCOC(=O)N(C)C	> 100 µM
CC(=O)Oc1ccccc1-c1cc2ccccc2oc1=O	> 100 µM
COC(=O)c1ccc(/C=C2\N=C(C)OC2=O)cc1	> 100 µM
Cc1ccc2nc(-c3ccc(N)c(I)c3)sc2c1	57.8 µM
CCOC(=O)c1nc2c(Cl)c3ncccc3cc2[nH]c1=O	> 100 µM
CCOC(=O)C1=C(Nc2cccc(OC)c2)OCC1=O	> 100 µM
O=C1NC(=O)C(CCO)(c2ccccc2)C(=O)N1	> 100 µM
CO[C@H]1[C@@H](O)[C@@H](C)O[C@@H](O[C@H]2CC[C@@]3(C)[C@H](CC[C@@H]4[C@@H]3CC[C@]3(C)[C@@H](C5=CC(=O)OC5)[C@@H](OC(C)=O)C[C@]43O)C2)[C@@H]1O	> 50 µM
COc1ccc2c(c1)CC[C@@H]1[C@@H]2CC[C@]2(C)C(=O)/C(=C/c3ccc(OC)c(OC)c3)C[C@@H]12	> 100 µM
